Holding throughout (type): cell-based, mouse
For one assay, the system named is IRS-2 mRNA. The assay is described as follows: IRS-2 mRNA expression (Northern blots) in differentiated 3T3-L1 adipocytes. Conditions: for effect on IRS-2 gene expression: FIG. 2: 10 μM darglitazone with 100 nM insulin, 10 μM WY14643 with or without insulin, 100 nM progesterone, 200 μM 8-BrcAMP. The procedure:
(§1) 3T3-L1 fibroblasts were grown and differentiated into adipocytes according to Rubin et al., 1977). At least 90% of the cells had acquired the adipocyte phenotype 6 days after initiating differentiation. Eight days after differentiation, the medium was changed and the various agents added for the times indicated in the Results.
(§2) Total cellular RNA was isolated from cells with guanidinium thiocyanate, as described (Chirgwin et al. 1979). Northern blot analyses were performed on total cellular RNA (30 μg) with labeled cDNA probes made against β-actin as housekeeping gene, mouse IRS-1 (bp 1333-2335) and mouse IRS-2 (bp 2987-3325) (kindly provided by Drs. J. Pierce and L-M Wang, NCI, NIH), rodent GLUT4 (bp 121-2128, Accession Nr NM 001042, kindly provided by Dr. Sam W. Cushman, NIDDK, NIH) and PKB/Akt using a PCR fragment against PKBβ (bp 282-1130, Accession Nr M95936) in a common sequence for PKBα, PKBβ and PKBγ. 5′ sequence […] and 3′ sequence […] were used as PCR primers (SEQ. ID. NO. 13 and 14, respectively).

A further assay has as its system IRS-1 mRNA. In words: IRS-1 mRNA expression (Northern blots) in differentiated 3T3-L1 adipocytes. The note with it: 48 hrs; insulin alone or combined with PPARγ ligand; same experiments as IRS-2. The procedure: as §1, §2
The next assay has as its system PKB/Akt mRNA. In words: PKB/Akt mRNA expression (Northern blots) in differentiated 3T3-L1 adipocytes. The note with it: 48 hrs; insulin alone or combined with PPARγ ligand; same experiments as IRS-2. The procedure: as §1, §2
In another assay the test system is IRS-2 protein. The assay is described as follows: IRS-2 protein expression (immunoblot) in differentiated 3T3-L1 cells. How it is done:
(§3) 3T3-L1 fibroblasts were grown and differentiated into adipocytes according to Rubin et al., 1977). At least 90% of the cells had acquired the adipocyte phenotype 6 days after initiating differentiation. Eight days after differentiation, the medium was changed and the various agents added for the times indicated in the Results. Cell lysates were prepared as described by Rondinone et al. 1997. Equal amounts of protein were separated by SDS/PAGE, transferred and immunoblotted with appropriate antibodies against the specific proteins. Phosphotyrosines were immunoblotted with antibody PY99 (Transduction Laboratories, Lexington, N.Y.), GLUT4 with an antibody kindly provided by Dr. Sam W. Cushman (NIDDK, NIH), IRS-1 and IRS-2 with antibodies from Upstate Biotechnology, Inc. (Lake Placid, N.Y.) and PKB/Akt with antibodies from Biolab (Boston, Mass.). Immunoprecipitations were performed as described (Rondinone et at., 1997) and individual proteins were detected by blotting with horseradish peroxidase-linked secondary antibodies and using enhanced chemiluminescence (Nycomed Amersham plc., UK).
On the technique in general: A western blot detects proteins with antibodies after separation by electrophoresis.

The next assay has as its system IRS-1 protein. In words: IRS-1 protein expression (immunoblot) in differentiated 3T3-L1 cells. The procedure: as §3
For a further assay, the system named is PKB/Akt protein. The assay is described as follows: PKB/Akt protein expression in differentiated 3T3-L1 cells. The note with it: pioglitazone and/or insulin for 48 hrs. The procedure:
as §3

A further assay relates to PKB/Akt phosphorylation. The assay is described as follows: Acute insulin-stimulated PKB/Akt phosphorylation (immunoblot) in pre-cultured 3T3-L1 adipocytes. Conditions: cells cultured with agent alone for 48 hrs, serum-starved 3 hrs, then 100 nM insulin 10 min.

Description for PKB/Akt phosphorylation: Lysates were prepared from cells that had been cultured for 48 hrs as in FIG. 3A, serum-starved for 3 hrs, and then stimulated with 100 nM insulin for 10 min. Following separation on 7.5% SDS-PAGE, the proteins were immunoblotted with antibodies recognizing insulin-stimulated phosphoserine (PS-PKB) and phosphothreonine (PThr-PKB) PKB/Akt.
To study the acute effect of insulin, the cells were serum-deprived for 3 hrs before adding 100 nM insulin for 15 min.
The present inventor also examined the acute effect of insulin on down-stream activation of PKB/Akt in cells that had been cultured with pioglitazone for 48 hrs, washed and serum-starved for 3 hrs in fresh medium. […] Insulin (100 nM) was then added for 10 min to the serum-starved cells.

Consider `Nc1ncnc2c1nc(Br)n2[C@@H]1O[C@@H]2COP(=O)(O)O[C@H]2[C@H]1O` [8-BrcAMP], for which, in the assay on IRS-2 mRNA (48 hrs), the “effect on IRS-2 gene expression” value is “no effects were seen”.

In the case of `Cc1cccc(Nc2cc(Cl)nc(SCC(=O)O)n2)c1C` [WY14643], the “average increase of IRS-2 mRNA expression” value with IRS-2 mRNA (10 μM, n=2, also when insulin was added (FIG. 2 middle)) came to 9%. The “effect on IRS-2 gene expression” value in the assay with IRS-2 mRNA (48 hrs) is given as “completely without effect”. Moreover, the “gene expression of IRS-1” value in the assay on IRS-1 mRNA was “no effect was seen”. In addition, the “gene expression of PKB/Akt” value with PKB/Akt mRNA was “no effect was seen”.

`Cc1oc(-c2ccccc2)nc1CCC(=O)c1ccc(CC2SC(=O)NC2=O)cc1` (stereo not drawn) [darglitazone]: in the assay with IRS-1 mRNA, the “gene expression of IRS-1” value is recorded as “Neither insulin alone nor when combined with the PPARγ ligands, pioglitazone or darglitazone (not shown), altered”. Further, in the assay on PKB/Akt mRNA, the “gene expression of PKB/Akt” value is “Neither insulin alone nor when combined with the PPARγ ligands, pioglitazone or darglitazone (not shown), altered”.

Turning to `CCc1ccc(CCOc2ccc(CC3SC(=O)NC3=O)cc2)nc1` (stereo not drawn) [pioglitazone], the “average increase of IRS-2 mRNA expression” value in the assay with IRS-2 mRNA (1 μM, n=2) was 230%; with IRS-2 mRNA (10 μM, same experiments as 1 μM, n=2), 292%. In addition, the “increase of IRS-2 mRNA” value in the assay on IRS-2 mRNA (10 μM pioglitazone in combination with 100 nM insulin, 48 hrs (FIG. 1A top)) is listed as roughly 4 fold. Further, in the assay on IRS-2 mRNA (after 48 hrs, 5 experiments (FIG. 1B top)), the “increase of IRS-2 mRNA levels relative to β-actin mRNA” value is 3-5 fold. In the assay on IRS-2 protein (after 48 hrs), the “average increase of IRS-2 protein expression” value is 36%. The “change of IRS-1 protein expression” value in the assay on IRS-1 protein (insulin and pioglitazone combined, three experiments, range 18-39%) is −31%; with IRS-1 protein (pioglitazone alone, three experiments), “+7%”.

As for `CC(=O)[C@H]1CC[C@H]2[C@@H]3CCC4=CC(=O)CC[C@]4(C)[C@H]3CC[C@]12C` [progesterone], the “effect on IRS-2 gene expression” value in the assay with IRS-2 mRNA (48 hrs) is reported as “no effects were seen”.

Consider insulin, for which the “further increase of IRS-2 mRNA by addition of insulin to pioglitazone” value with IRS-2 mRNA (100 nM insulin added to 10 μM pioglitazone, 48 hrs (FIG. 1A bottom)) is recorded as “no further increase”. For the same molecule, in the assay with IRS-2 mRNA (insulin alone (100 nM), 48 hrs), the IRS-2 gene expression result was “did not change”. For the same molecule, the IRS-2 protein expression entry with IRS-2 protein (48 hrs, 10 μM pioglitazone or 100 nM insulin (FIG. 1B bottom)) is recorded as “not changed”. In the assay with IRS-1 mRNA, the “gene expression of IRS-1” value is on record as “Neither insulin alone nor when combined with the PPARγ ligands, pioglitazone or darglitazone (not shown), altered”. For the same molecule, the “gene expression of PKB/Akt” value in the assay on PKB/Akt mRNA was “Neither insulin alone nor when combined with the PPARγ ligands, pioglitazone or darglitazone (not shown), altered”. Moreover, in the assay with IRS-1 protein (insulin alone, three experiments, range 25-39%), the “decrease of IRS-1 protein expression” value was determined as 33%. In the assay with IRS-1 protein (pioglitazone alone or insulin alone, chronic (FIG. 3B bottom)), the IRS-1 protein expression result is recorded as “reduced”. Moreover, the PKB/Akt protein expression entry in the assay with PKB/Akt protein is on record as “not changed”. Also, the “acute effect of insulin on PKB/Akt phosphorylation” value in the assay on PKB/Akt phosphorylation was “markedly reduced”.

The values are drawn from US6835819B2, “Sequences and their use” (Metcon Medicin AB, priority 2000, dated 2004).
